Assay results: patent publication US20250163038A1, “CBL-B MODULATORS AND USES THEREOF” (Nimbus Clio, Inc., priority 2021, published 2025)

Assays:
[1] = biological target: T1, Recombinant human c-Cbl (aa 47-435) (Homo sapiens, UniProt P22681); assay: c-Cbl Biochemical Assay (TR-FRET); details: hc-Cbl Biochemical Assay (TR-FRET); read-out: TR-FRET hcCbl IC50
T1 sequence (P22681 47-435): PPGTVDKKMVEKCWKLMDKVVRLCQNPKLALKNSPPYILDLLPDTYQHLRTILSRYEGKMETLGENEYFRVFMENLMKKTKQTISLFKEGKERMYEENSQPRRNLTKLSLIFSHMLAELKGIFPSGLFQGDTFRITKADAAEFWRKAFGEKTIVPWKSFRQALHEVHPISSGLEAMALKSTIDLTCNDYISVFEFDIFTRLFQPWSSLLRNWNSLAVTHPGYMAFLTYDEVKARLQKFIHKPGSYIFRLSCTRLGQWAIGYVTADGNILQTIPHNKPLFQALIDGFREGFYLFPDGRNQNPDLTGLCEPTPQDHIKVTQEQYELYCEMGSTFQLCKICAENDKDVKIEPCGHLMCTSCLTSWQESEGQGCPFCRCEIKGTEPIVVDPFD

[2] = biological target: Recombinant human Cbl-b (aa 36-427) (Homo sapiens, UniProt Q13191); assay: Cbl-b Biochemical Assay (TR-FRET); details: read-out: TR-FRET hCbl-b IC50
Sequence of Recombinant human Cbl-b (aa 36-427) (Q13191 36-427): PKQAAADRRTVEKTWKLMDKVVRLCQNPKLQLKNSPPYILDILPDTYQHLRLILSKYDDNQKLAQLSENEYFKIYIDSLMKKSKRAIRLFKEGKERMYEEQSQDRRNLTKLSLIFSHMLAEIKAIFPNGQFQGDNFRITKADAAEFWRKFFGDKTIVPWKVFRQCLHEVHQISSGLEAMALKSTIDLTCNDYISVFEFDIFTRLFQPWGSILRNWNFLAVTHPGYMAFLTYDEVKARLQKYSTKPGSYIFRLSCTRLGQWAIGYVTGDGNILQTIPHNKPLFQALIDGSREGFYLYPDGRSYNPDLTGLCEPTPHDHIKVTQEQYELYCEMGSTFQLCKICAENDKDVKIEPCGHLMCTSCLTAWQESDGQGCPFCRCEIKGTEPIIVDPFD

[3] = system: Jurkat (clone E6-1) cells with NFAT luciferase reporter; assay: Jurkat reporter assay (NFAT Luciferase); format: cell-based; details: Homo sapiens; Jurkat NFAT luciferase reporter cells, anti-CD3 stimulation, 6 hr; read-out: Jurkat NFAT EC50

Row | Compound | IC50 [1] [nM] | IC50 [2] [nM] | EC50 [3] [nM]
1 | COC[C@H](C)NCc1cc(C)c2oc(-c3cc(-c4ccc(F)cc4-c4nncn4C)cc(C4CC4)n3)nc2c1 [AGK-1, [(2-{6-Cyclopropyl-4-[4-fluoro-2-(4-methyl-1,2,4-triazol-3-yl)phenyl]pyridin-2-yl}-7-methyl-1,3-benzoxazol-5-yl)methyl][(2S)-1-methoxypropan-2-yl]amine] | < 200 | < 200 | < 200
2 | COC[C@@H](C)NCc1cc(C)c2oc(-c3cc(-c4ccc(F)cc4-c4nncn4C)cc(C4CC4)n3)nc2c1 [AGL-1, [(2-{6-Cyclopropyl-4-[4-fluoro-2-(4-methyl-1,2,4-triazol-3-yl)phenyl]pyridin-2-yl}-7-methyl-1,3-benzoxazol-5-yl)methyl][(2R)-1-methoxypropan-2-yl]amine] | 200 to 1000 | < 200 | 200 to 1000
3 | COC(=O)C1(c2cc(F)c3oc(-c4cc(-c5ccc(F)cc5-c5nncn5C)cc(C5CC5)n4)nc3c2)CC1 [AGM-8, Methyl 1-(2-{6-cyclopropyl-4-[4-fluoro-2-(4-methyl-1,2,4-triazol-3-yl)phenyl]pyridin-2-yl}-7-fluoro-1,3-benzoxazol-5-yl) cyclopropane-1-carboxylate] | 1000 to 10000 | 200 to 1000 | 1000 to 10000
4 | Cn1cnnc1-c1cc(F)ccc1-c1cc(-c2nc3cc(C4(N)CC4)cc(F)c3o2)nc(C2CC2)c1 [AGN-3, 1-(2-{6-Cyclopropyl-4-[4-fluoro-2-(4-methyl-1,2,4-triazol-3-yl)phenyl]pyridin-2-yl}-7-fluoro-1,3-benzoxazol-5-yl) cyclopropan-1-amine] | 200 to 1000 | < 200 | 1000 to 10000
5 | COC1(CNC2(c3cc(F)c4oc(-c5cc(-c6ccc(F)cc6-c6nncn6C)cc(C6CC6)n5)nc4c3)CC2)CCC1 [AGO-2, 1-(2-{6-Cyclopropyl-4-[4-fluoro-2-(4-methyl-1,2,4-triazol-3-yl)phenyl]pyridin-2-yl}-7-fluoro-1,3-benzoxazol-5-yl)-N-[(1-methoxycyclobutyl)methyl]cyclopropan-1-amine] | 200 to 1000 | < 200 | 200 to 1000
6 | Cc1c(F)c(CO)cc2nc(-c3cc(-c4ccc(F)cc4-c4nncn4C)cc(C4CC4)n3)oc12 [AGP-7, (2-{6-Cyclopropyl-4-[4-fluoro-2-(4-methyl-1,2,4-triazol-3-yl)phenyl]pyridin-2-yl}-6-fluoro-7-methyl-1,3-benzoxazol-5-yl)methanol] | 1000 to 10000 | 200 to 1000 | 1000 to 10000
7 | Cc1c(F)c(CN[C@@H]2CCC[C@@H]2O)cc2nc(-c3cc(-c4ccc(F)cc4-c4nncn4C)cc(C4CC4)n3)oc12 [AGQ-2, (1S,2R)-2-{[(2-{6-Cyclopropyl-4-[4-fluoro-2-(4-methyl-1,2,4-triazol-3-yl)phenyl]pyridin-2-yl}-6-fluoro-7-methyl-1,3-benzoxazol-5-yl)methyl]amino}cyclopentan-1-ol] | < 200 | < 200 | < 200
8 | Cc1cc(C(C)(C)N)cc2nc(-c3cc(-c4ccc(F)cc4-c4nncn4C)cc(C4CC4)n3)oc12 [AGR-9, 2-(2-{6-Cyclopropyl-4-[4-fluoro-2-(4-methyl-1,2,4-triazol-3-yl)phenyl]pyridin-2-yl}-7-methyl-1,3-benzoxazol-5-yl)propan-2-amine] | 1000 to 10000 | 200 to 1000 | 1000 to 10000
9 | COC[C@H](C)NCc1cc(C)c2oc(-c3cccc(-c4ccc(F)cc4-c4nncn4C)c3)nc2c1 [AGS-4, ({2-[4′-Fluoro-2′-(4-methyl-1,2,4-triazol-3-yl)-[1,1′-biphenyl]-3-yl]-7-methyl-1,3-benzoxazol-5-yl}methyl)[(2S)-1-methoxypropan-2-yl]amine] | < 200 | < 200 | < 200
10 | Cn1cnnc1-c1cc(F)ccc1-c1cc(-c2nc3cc(CNCC4CCC4)cc(F)c3o2)nc(C2CC2)c1 [AGT-1, (Cyclobutylmethyl)[(2-{6-cyclopropyl-4-[4-fluoro-2-(4-methyl-1,2,4-triazol-3-yl)phenyl]pyridin-2-yl}-7-fluoro-1,3-benzoxazol-5-yl)methyl]amine] | < 200 | < 200 | < 200
11 | Cc1cc(C(C)NCC2CCC2)cc2nc(-c3cc(-c4ccc(F)cc4-c4nncn4C)cc(C4CC4)n3)oc12 (stereo not drawn) [AGU-1, (cyclobutylmethyl)[1-(2-{6-cyclopropyl-4-[4-fluoro-2-(4-methyl-1,2,4-triazol-3-yl)phenyl]pyridin-2-yl}-7-methyl-1,3-benzoxazol-5-yl)ethyl]amine] | < 200 | < 200 | < 200
12 | Cc1cc([C@H](C)NCC2CCC2)cc2nc(-c3cc(-c4ccc(F)cc4-c4nncn4C)cc(C4CC4)n3)oc12 [AGX-1, (cyclobutylmethyl)[(1S)-1-(2-{6-cyclopropyl-4-[4-fluoro-2-(4-methyl-1,2,4-triazol-3-yl)phenyl]pyridin-2-yl}-7-methyl-1,3-benzoxazol-5-yl)ethyl]amine] | < 200 | < 200 | < 200
13 | Cc1cc([C@@H](C)NCC2CCC2)cc2nc(-c3cc(-c4ccc(F)cc4-c4nncn4C)cc(C4CC4)n3)oc12 [AGY-1, (cyclobutylmethyl)[(1R)-1-(2-{6-cyclopropyl-4-[4-fluoro-2-(4-methyl-1,2,4-triazol-3-yl)phenyl]pyridin-2-yl}-7-methyl-1,3-benzoxazol-5-yl)ethyl]amine] | < 200 | < 200 | < 200
14 | CCNCc1cc2nc(-c3cc(-c4ccc(F)cc4-c4nncn4C)cc(C4CC4)n3)oc2c(F)c1F [AGZ-2, [(2-{6-cyclopropyl-4-[4-fluoro-2-(4-methyl-1,2,4-triazol-3-yl)phenyl]pyridin-2-yl}-6,7-difluoro-1,3-benzoxazol-5-yl)methyl](ethyl)amine] | 200 to 1000 | < 200 | 200 to 1000
15 | Cn1cnnc1-c1cc(F)ccc1-c1cccc(-c2nc3cc(CNCC4(O)CC4)cc(C(F)(F)F)c3o2)c1 [AH-2, 1-((((2-(4′-Fluoro-2′-(4-methyl-4H-1,2,4-triazol-3-yl)-[1,1′-biphenyl]-3-yl)-7-(trifluoromethyl)benzo[d]oxazol-5-yl)methyl)amino)methyl)cyclopropan-1-ol] | 1000 to 10000 | < 200 | 200 to 1000
16 | CNCc1cc2nc(-c3cc(-c4ccc(F)cc4-c4nncn4C)cc(C4CC4)n3)oc2c(F)c1F [AHA-2, [(2-{6-cyclopropyl-4-[4-fluoro-2-(4-methyl-1,2,4-triazol-3-yl)phenyl]pyridin-2-yl}-6,7-difluoro-1,3-benzoxazol-5-yl)methyl](methyl)amine] | 200 to 1000 | < 200 | 1000 to 10000
17 | COCCNCc1cc(F)c2oc(-c3cc(-c4ccc(F)cc4-c4nncn4C)cc(C4CC4)n3)nc2c1 [AHB-1, [(2-{6-cyclopropyl-4-[4-fluoro-2-(4-methyl-1,2,4-triazol-3-yl)phenyl]pyridin-2-yl}-7-fluoro-1,3-benzoxazol-5-yl)methyl](2-methoxyethyl)amine] | < 200 | < 200 | < 200
18 | COC(=O)c1cc(F)c2oc(-c3cc(-c4ccc(C#N)cc4-c4nncn4C)cc(C4CC4)n3)nc2c1 [AHC-1, methyl 2-{4-[4-cyano-2-(4-methyl-1,2,4-triazol-3-yl)phenyl]-6-cyclopropylpyridin-2-yl}-7-fluoro-1,3-benzoxazole-5-carboxylate] | 1000 to 10000 | 200 to 1000 | 1000 to 10000
19 | Cn1cnnc1-c1cc(C#N)ccc1-c1cc(-c2nc3cc(CO)cc(F)c3o2)nc(C2CC2)c1 [AHD-1, 4-{2-cyclopropyl-6-[7-fluoro-5-(hydroxymethyl)-1,3-benzoxazol-2-yl]pyridin-4-yl}-3-(4-methyl-1,2,4-triazol-3-yl) benzonitrile] | 1000 to 10000 | 200 to 1000 | 1000 to 10000
20 | Cn1cnnc1-c1cc(C#N)ccc1-c1cc(-c2nc3cc(CNCC4CCC4)cc(F)c3o2)nc(C2CC2)c1 [AHE-2, 4-[2-(5-{[(cyclobutylmethyl)amino]methyl}-7-fluoro-1,3-benzoxazol-2-yl)-6-cyclopropylpyridin-4-yl]-3-(4-methyl-1,2,4-triazol-3-yl) benzonitrile] | < 200 | < 200 | < 200
21 | CO[C@@H](C)CNCc1cc(C)c2oc(-c3cc(-c4ccc(F)cc4-c4nncn4C)cc(C4CC4)n3)nc2c1 [AHF-1, [(2-{6-cyclopropyl-4-[4-fluoro-2-(4-methyl-1,2,4-triazol-3-yl)phenyl]pyridin-2-yl}-7-methyl-1,3-benzoxazol-5-yl)methyl][(2S)-2-methoxypropyl]amine] | < 200 | < 200 | < 200
22 | COCCNCc1cc2nc(-c3cc(-c4ccc(F)cc4-c4nncn4C)cc(C4CC4)n3)oc2c(C)c1F [AHG-1, [(2-{6-cyclopropyl-4-[4-fluoro-2-(4-methyl-1,2,4-triazol-3-yl)phenyl]pyridin-2-yl}-6-fluoro-7-methyl-1,3-benzoxazol-5-yl)methyl](2-methoxyethyl)amine] | < 200 | < 200 | < 200
